Test results: patent US7018994B2, “17α-ALKYL-17β-OXY-ESTRATRIENES AND INTERMEDIATE PRODUCTS FOR THEIR PRODUCTION, USE OF THE 17α-ALKYL-17β-OXY-ESTRATRIENES FOR THE PRODUCTION OF PHARMACEUTICAL AGENTS AS WELL AS PHARMACEUTICAL PREPARATIONS” (Schering AG, priority 2001, dated 2006)

Legend:
uterus growth = assay: Uterus growth test on infant rats (test on antiestrogenic action, antiuterotropic action); type: in vivo, rat; conditions: infant female rats, inhibition relative to EB control; for Antiuterotropic Action % Inhib. p.o.: 0.3 (mg/kg of body weight) p.o. once daily for three days with 0.5 μg estradiolbenzoate s.c.
17β-HSD2 = molecular target: T1, 17β-HSD2 (Homo sapiens, UniProt P37059); assay: Determination of metabolic stability: in-vitro 17β-HSD test, intestinal microsomes; type: in vitro ADME; conditions: LC/MS/MS; for metabolic stability in intestinal microsomes: 37° C., 0-60 minutes, 0.3 μmol in the test batch
T1 construct: Microsome solution: intestinal microsomes (In Vitro Technologies); protein content: 24 mg/ml; tissue In Vitro Technologies; host or cells: intestinal microsomes
T1 sequence (P37059 1-387): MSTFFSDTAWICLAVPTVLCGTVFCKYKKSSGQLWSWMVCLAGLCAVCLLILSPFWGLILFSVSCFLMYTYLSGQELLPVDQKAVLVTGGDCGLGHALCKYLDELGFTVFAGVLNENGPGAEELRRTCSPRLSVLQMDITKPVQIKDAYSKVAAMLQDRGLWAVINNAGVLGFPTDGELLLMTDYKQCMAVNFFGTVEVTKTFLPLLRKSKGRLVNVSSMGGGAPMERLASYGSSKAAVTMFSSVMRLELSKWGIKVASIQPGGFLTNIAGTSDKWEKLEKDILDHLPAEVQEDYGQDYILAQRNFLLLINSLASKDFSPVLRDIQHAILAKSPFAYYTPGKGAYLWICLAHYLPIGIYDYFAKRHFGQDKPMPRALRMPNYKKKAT
Excerpt: Determination of metabolic stability: in-vitro 17β-HSD test
17β-HSD2 mediates the intestinal enzymatic dehydrogenization of an OH group in 17-position of the sterane skeleton into a ketone group.
For this test, the following materials are used:
Na-Phosphate buffer: 100 mmol of Na2HPO4×2H2O and 100 mmol of NaH2PO4×H2O
Test substance solution of
11β-Fluoro-7α-{5-[methyl(8,8,9,9,9-pentafluorononyl)amino]pentyl}-17α-methylestra-1,3,5(10)-triene-3,17β-diol (compound 1, as a representative of the compounds of general formula I) and
11β-Fluoro-7α-{5-[methyl(8,8,9,9,9-pentafluorononyl)amino]pentyl-estra-1,3,5(10)-triene-3,17β-diol (compound 2): […] in MeOH (0.3 μmol in the test batch).
Cofactor solution: 2 ml of glucose-6-phosphate (160 mmol)/MgCl2 (80 mmol) mixture is added to 400 μl of a glucose-6-phosphate-dehydrogenase solution, and then 15.6 mg of NADP and 13.4 mg of NAD are added.
Microsome solution: intestinal microsomes (In Vitro Technologies; protein content: 24 mg/ml; CYP450 content: 0.058 nmol/mg of protein)
In the water bath, it is thawed at 37° C. (˜60 seconds) and diluted with Na-phosphate buffer to a concentration of 5 mg/ml of protein.
In each case, 170 μl/well of the buffer and 5 μl/well of the test substance solutions are introduced into the corresponding wells, whereby double values are applied for each measuring time (0, 10, 20, 30, 45 and 60 minutes).
In each case, 250 μl of ice-cold MeOH is added to the 0-minute values. Then, 25 μl of microsome solution and 50 μl of cofactor solution are added immediately to all wells. The samples of the 0-minute values are stored without incubation at ˜−20° C. for about 24 hours. The other samples are incubated in each case for 10, 20, 30, 45 and 60 minutes at 37° C., and the dehydrogenation reaction is stopped after these times by the addition of 250 μl of ice-cold MeOH in each case. The samples are stored until measurement per LC/MS/MS at ˜−20° C., for about 24 hours and centrifuged at 3000 rpm before analysis, whereby the supernatant is measured.
(§1) The concentrations of the test substances measured per LC/MS/MS and the resulting 17 ketone product are reproduced in FIGS. 2a-2f.

[1] = Metabolic stability in liver microsomes; type: in vitro ADME; conditions: LC/MS/MS
Excerpt: as §1

## CN(CCCCCCCC(F)(F)C(F)(F)F)CCCCC[C@@H]1Cc2cc(O)ccc2[C@@H]2[C@@H]1[C@@H]1CCC(=O)[C@@]1(C)C[C@@H]2F [compound 3, 11β-fluoro-7α-{5-[methyl(8,8,9,9,9-pentafluorononyl)amino]pentyl}-estra-1,3,5(10)-trien-3-ol-17-one]
Uterus growth
  Antiuterotropic Action % Inhib. p.o.: 76%

## CN(CCCCCCCC(F)(F)C(F)(F)F)CCCCC[C@@H]1Cc2cc(O)ccc2[C@@H]2[C@@H]1[C@@H]1CC[C@H](O)[C@@]1(C)C[C@@H]2F [compound 2, reference compound]
17β-HSD2
  metabolic stability in intestinal microsomes: degraded
  formation of the 17-ketone product of the 17βHSD-reaction: the corresponding 17-ketone is produced

## 11β-Fluoro-7α-{5-[methyl(7,7,8,8,9,9,9-heptafluorononyl)amino]pentyl}-17α-methylestra-1,3,5(10)-triene-3,17β-diol [No. 8]
Uterus growth
  Antiuterotropic Action % Inhib. p.o.: 94%

## 11β-Fluoro-7α-{5-[methyl(7,7,8,8,9,9,10,10,10-nonafluorodecyl)amino]pentyl}-17α-methylestra-1,3,5 (10)-triene-3,17β-diol [No. 7]
Uterus growth; 0.03 (mg/kg of body weight) s.c., once daily for three days with 0.5 μg estradiolbenzoate s.c.
  Antiuterotropic Action % Inhib. s.c.: 59%

## 11β-Fluoro-7α-{5-[methyl(8,8,9,9,9-pentafluorononyl)amino]pentyl}-17α-methylestra-1,3,5(10)-triene-3,17β-diol [compound 1]
17β-HSD2
  metabolic stability in intestinal microsomes: metabolically stable
  formation of the 17-ketone product of the 17βHSD-reaction: does not occur in any of the tissues
[1]
  formation of the 17-ketone product of the 17βHSD-reaction: does not occur in any of the tissues
  metabolic stability in liver microsomes: not in liver microsomes
